Results as given in patent publication US8278044B2, “Method for the identification of carcinogenic compounds” (priority 2008, dated 2012).

Experiments:
HepG2 cells [1] = assay: Flow cytometric analysis of cell cycle; type: cell-based, human; settings: 3 μM BaP
Description: (§1) Two independent experiments were conducted.
(§2) Analyses of cell cycle profiles and apoptosis was performed as previously described using a FACSort (Becton Dickinson, Sunnyvale, USA) (29). For DNA content cells were stained with propidium iodide; apoptotic cells were visualised with the primary antibody M30 CytoDeath (Roche, Penzberg, Germany) and FITC conjugated anti-mouse Ig as secondary antibody (DakoCytomation, Glostrup, Denmark). For each sample 10,000 cells were analyzed. Cells in the G0-1, S or G2-M phase were expressed as a percentage of the total number of cells.

HepG2 cells [2] = assay: Flow cytometric analysis of apoptosis (M30 CytoDeath); type: cell-based; settings: human, 3 μM
Description: as §1, §2

HepG2 cells [3] = assay: Gene expression analyses with DNA microarrays (Agilent), Reactome and T-profiler; type: cell-based, human; settings: 3 μM BaP
Description: Labelling and hybridisation of RNA samples was done according to Agilent's manual for microarrays (Agilent Technologies, Breda, The Netherlands). […] For each biological experiment, two hybridizations per time point were conducted, with swapped Cy3 and Cy5 dyes.
The images (10 micron resolution; 16 bit tiff) were processed with ImaGene 6.0 to quantify spot signals (BioDiscovery Inc., Los Angeles, USA). Irregular spots were automatically flagged and excluded from data analysis. Data from ImaGene were further processed with GeneSight 4.1.6 (BioDiscovery Inc., Los Angeles, USA). For each spot, background was subtracted and flagged spots as well as spots with a net expression level below 20 in both channels were omitted. Data were log base 2 transformed and LOWESS normalized. If for a gene more probes were on the array, replicates were averaged while omitting outliers (>2 standard deviations). Raw data are available at ArrayExpress (accession numbers E-TOXM-22 and E-TOXM-23, for the first and second experiment respectively) (www.ebi.ac.uk/arrayexpress/).
Second, genes were selected by ANOVA using the plug-in “Time series analysis” from BRB Array Tools (version 3.4 and R version 2.2.0; linus.nci.nih.gov/BRB-ArrayTools.html) with “Time” as descriptor.
Reactome (www.reactome.org; Version 25, August 2008) (45) is used to examine the biological processes that may be affected at the level of reactions and reaction pathways, a level of detail that cannot be obtained by gene ontology annotations, and KEGG and BioCarta pathways. Reactions are grouped into causal chains to form pathways. […] The ratio of these number of differentially genes per event with total numbers present in the set of 2808 genes, are used for visualisation of affected pathways. Rctions were ordered by main pathway and sub-pathway.
T-profiler is used for functional annotation of pathways and processes in the complete data set of genes without pre-selecting modulated genes. T-profiler uses the unpaired t-test to score the difference between the mean expression level of predefined sets of genes and that of all other genes within the complete data set (46). […] Per experiment and time point t-values were determined for each gene set. Only gene sets with an absolute t-value>4 at at least 2 succeeding time points in both experiments were selected for further analyses.

`c1ccc2c(c1)cc1ccc3cccc4ccc2c1c34` [BaP, benzo[a]pyrene] was tested, and the “duration of S-phase accumulation” value (HepG2 cells [1]) was 6 to 18 h, the “time after which cell cycle distribution becomes similar to that of the controls” value (HepG2 cells [1]) was “about 54 h” and the S-phase cells (HepG2 cells [1]; at 18 h, concomitant decrease of cells in G1 and G2 phases) was “drastic increase”. For the same molecule, the apoptotic cells levels (HepG2 cells [2]) was 0.5-3%, the “POLR2A expression (TC-NER)” value (HepG2 cells [3]) was “upregulated at early time points” and the “POLR2D expression (TC-NER)” value (HepG2 cells [3]) was “downregulated at late time points”. For the same molecule, the “base excision repair and global genomic repair pathways” value (HepG2 cells [3]) was “induced from 9/12 h until 60 h”, the “period of upregulation of DDB2 (GG-NER)” value (HepG2 cells [3]) was 9 to 60 h and the “period of upregulation of GC-NER (global genomic NER) reaction pathway” value (HepG2 cells [3]) was 9 to 60 h. For the same molecule, the “period of upregulation of TC-NER reaction pathway” value (HepG2 cells [3]) was 9 to 42 h.
